# Assay results published in the supplement of paper PMC10307832.
# Tests used:
# Test in all cases: relative viability (nuclei count vs DMSO), 5 days (fraction); higher = more cells survive
# Gemcitabine + Olaparib = compound: Nc1ccn([C@@H]2O[C@H](CO)[C@@H](O)C2(F)F)c(=O)n1 [Gemcitabine] + O=C(c1cc(Cc2n[nH]c(=O)c3ccccc23)ccc1F)N1CCN(C(=O)C2CC2)CC1 [Olaparib] (partner 8 µM)
# Outline: (§1)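 Five library-drug doses in √10 steps were combined with a fixed anchor-drug dose, or a single drug was given alone, by pin tool to lung cancer cell lines in 1536-well plates the day after seeding. Nuclei were stained and counted after 5 days. Relative viability is the nuclei count in treated wells over that in vehicle wells, taken as the median of duplicate plates.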
# Gemcitabine + Phenformin = compound: Nc1ccn([C@@H]2O[C@H](CO)[C@@H](O)C2(F)F)c(=O)n1 [Gemcitabine] + N=C(N)NC(=N)NCCc1ccccc1 [Phenformin] (partner 250 µM)
# Outline: as §1
# Gemcitabine + Lapatinib = compound: Nc1ccn([C@@H]2O[C@H](CO)[C@@H](O)C2(F)F)c(=O)n1 [Gemcitabine] + CS(=O)(=O)CCNCc1ccc(-c2ccc3ncnc(Nc4ccc(OCc5cccc(F)c5)c(Cl)c4)c3c2)o1 [Lapatinib] (partner 2 µM)
# Outline: as §1
# Gemcitabine + Trametinib = compound: Nc1ccn([C@@H]2O[C@H](CO)[C@@H](O)C2(F)F)c(=O)n1 [Gemcitabine] + CC(=O)Nc1cccc(-n2c(=O)n(C3CC3)c(=O)c3c(Nc4ccc(I)cc4F)n(C)c(=O)c(C)c32)c1 [Trametinib] (partner 0.02 µM)
# Outline: as §1
Cell Line,relative viability (Gemcitabine + Olaparib; first compound 0.001 µM),relative viability (Gemcitabine + Olaparib; first compound 0.003162 µM),relative viability (Gemcitabine + Olaparib; first compound 0.01 µM),relative viability (Gemcitabine + Olaparib; first compound 0.03162 µM),relative viability (Gemcitabine + Olaparib; first compound 0.1 µM),relative viability (Gemcitabine + Phenformin; first compound 0.001 µM),relative viability (Gemcitabine + Phenformin; first compound 0.003162 µM),relative viability (Gemcitabine + Phenformin; first compound 0.01 µM),relative viability (Gemcitabine + Phenformin; first compound 0.03162 µM),relative viability (Gemcitabine + Phenformin; first compound 0.1 µM),relative viability (Gemcitabine + Lapatinib; first compound 0.001 µM),relative viability (Gemcitabine + Lapatinib; first compound 0.003162 µM),relative viability (Gemcitabine + Lapatinib; first compound 0.01 µM),relative viability (Gemcitabine + Lapatinib; first compound 0.03162 µM),relative viability (Gemcitabine + Lapatinib; first compound 0.1 µM),relative viability (Gemcitabine + Trametinib; first compound 0.001 µM),relative viability (Gemcitabine + Trametinib; first compound 0.003162 µM),relative viability (Gemcitabine + Trametinib; first compound 0.01 µM),relative viability (Gemcitabine + Trametinib; first compound 0.03162 µM),relative viability (Gemcitabine + Trametinib; first compound 0.1 µM)
NCI-H661,0.78,0.783,0.655,0.274,0.232,0.282,0.263,0.231,0.197,0.226,0.618,0.47,0.287,0.216,0.171,0.568,0.606,0.464,0.281,0.223
NCI-H1993,1.01,0.908,0.519,0.412,0.428,0.461,0.485,0.439,0.421,0.407,0.77,0.769,0.853,0.546,0.495,0.508,0.457,0.503,0.351,0.438
NCI-H1437,0.622,0.781,0.488,0.325,0.225,0.313,0.213,0.193,0.17,0.112,0.828,0.737,0.402,0.157,0.0977,0.523,0.611,0.384,0.241,0.164
UMC-11,0.41,0.496,0.356,0.38,0.247,0.384,0.349,0.328,0.275,0.185,1.04,1.06,0.98,0.879,0.208,0.627,0.635,0.716,0.609,0.161
201T,0.884,0.844,0.826,0.302,0.262,0.43,0.455,0.427,0.334,0.263,0.981,1.04,1.03,0.942,0.537,0.753,0.714,0.736,0.691,0.324
NCI-H358,0.689,0.321,0.146,0.101,0.0993,0.291,0.22,0.101,0.0745,0.0748,0.436,0.398,0.203,0.212,0.156,0.11,0.107,0.0776,0.0818,0.0722
NCI-H1650,0.886,0.522,0.479,0.12,0.122,0.437,0.202,0.154,0.129,0.121,0.669,0.706,0.406,0.179,0.17,0.556,0.337,0.208,0.174,0.137
LOU-NH91,0.92,0.781,0.501,0.223,0.264,0.723,0.498,0.442,0.225,0.21,0.733,0.72,0.479,0.267,0.276,0.787,0.762,0.578,0.466,0.358
HOP-62,0.516,0.387,0.0703,0.0534,0.0449,0.67,0.492,0.239,0.0719,0.0597,0.961,0.863,0.301,0.0724,0.0756,0.366,0.405,0.24,0.122,0.0817
NCI-H1915,0.246,0.255,0.258,0.233,0.192,0.353,0.356,0.344,0.279,0.214,0.938,0.877,0.949,0.925,0.597,0.317,0.308,0.286,0.281,0.188
NCI-H3122,0.622,0.625,0.396,0.136,0.107,0.436,0.322,0.165,0.13,0.121,1.02,1.04,0.926,0.476,0.243,0.219,0.237,0.174,0.141,0.0965
NCI-H1651,0.182,0.193,0.187,0.138,0.075,0.392,0.359,0.335,0.151,0.155,0.863,1,0.678,0.165,0.0838,0.828,0.813,0.826,0.185,0.114
NCI-H838,0.787,0.842,0.534,0.282,0.12,0.634,0.675,0.521,0.19,0.0985,1.02,1.22,0.923,0.282,0.103,0.51,0.621,0.561,0.274,0.127
NCI-H596,0.733,0.714,0.384,0.336,0.311,0.74,0.612,0.489,0.262,0.306,1.01,1.07,0.739,0.424,0.373,0.918,0.593,0.392,0.336,0.321
SK-LU-1,0.431,0.188,0.181,0.183,0.168,0.578,0.272,0.154,0.115,0.124,0.89,0.509,0.162,0.134,0.195,0.512,0.373,0.267,0.161,0.241
NCI-H650,0.364,0.241,0.113,0.115,0.102,0.387,0.255,0.202,0.158,0.168,0.606,0.269,0.299,0.149,0.161,0.809,0.469,0.126,0.141,0.129

Cell Line,relative viability (Gemcitabine + Olaparib; first compound 0.001 µM),relative viability (Gemcitabine + Olaparib; first compound 0.003162 µM),relative viability (Gemcitabine + Olaparib; first compound 0.01 µM),relative viability (Gemcitabine + Olaparib; first compound 0.03162 µM),relative viability (Gemcitabine + Olaparib; first compound 0.1 µM),relative viability (Gemcitabine + Phenformin; first compound 0.001 µM),relative viability (Gemcitabine + Phenformin; first compound 0.003162 µM),relative viability (Gemcitabine + Phenformin; first compound 0.01 µM),relative viability (Gemcitabine + Phenformin; first compound 0.03162 µM),relative viability (Gemcitabine + Phenformin; first compound 0.1 µM),relative viability (Gemcitabine + Lapatinib; first compound 0.001 µM),relative viability (Gemcitabine + Lapatinib; first compound 0.003162 µM),relative viability (Gemcitabine + Lapatinib; first compound 0.01 µM),relative viability (Gemcitabine + Lapatinib; first compound 0.03162 µM),relative viability (Gemcitabine + Lapatinib; first compound 0.1 µM),relative viability (Gemcitabine + Trametinib; first compound 0.001 µM),relative viability (Gemcitabine + Trametinib; first compound 0.003162 µM),relative viability (Gemcitabine + Trametinib; first compound 0.01 µM),relative viability (Gemcitabine + Trametinib; first compound 0.03162 µM),relative viability (Gemcitabine + Trametinib; first compound 0.1 µM)
SK-MES-1,0.587,0.22,0.165,0.199,0.161,0.552,0.249,0.191,0.158,0.154,0.499,0.468,0.295,0.201,0.203,0.605,0.551,0.25,0.237,0.178
NCI-H1792,0.578,0.0978,0.0544,0.112,0.0454,0.291,0.104,0.0944,0.119,0.0679,0.948,0.806,0.239,0.107,0.0773,0.414,0.183,0.0715,0.0564,0.0677
NCI-H1355,0.667,0.441,0.141,0.157,0.151,0.444,0.297,0.214,0.202,0.178,0.884,0.825,0.304,0.153,0.153,0.426,0.363,0.245,0.189,0.154
SW 1573,0.413,0.295,0.0949,0.102,0.0546,0.353,0.202,0.104,0.0718,0.0652,1.07,0.994,0.681,0.148,0.082,0.46,0.405,0.117,0.0639,0.0615
NCI-H2347,0.603,0.529,0.496,0.383,0.373,0.381,0.346,0.304,0.275,0.221,0.952,0.896,0.646,0.655,0.467,0.305,0.255,0.276,0.258,0.2
LCLC-97TM1,0.331,0.178,0.0884,0.0632,0.0703,0.376,0.406,0.179,0.187,0.144,0.829,0.683,0.178,0.0781,0.0994,0.169,0.143,0.12,0.126,0.0828
EMC-BAC-2,0.534,0.578,0.316,0.181,0.201,0.566,0.525,0.425,0.205,0.204,0.923,0.979,0.86,0.198,0.159,0.938,0.941,0.524,0.284,0.273
NCI-H1975,0.755,0.78,0.433,0.179,0.139,0.416,0.268,0.176,0.129,0.122,0.983,1.1,0.725,0.245,0.179,0.305,0.447,0.367,0.124,0.135
BEN,0.946,0.421,0.234,0.193,0.145,0.262,0.23,0.243,0.222,0.202,0.625,0.529,0.197,0.112,0.108,1.02,0.615,0.311,0.245,0.226
NCI-H23,0.293,0.132,0.0825,0.109,0.0995,0.71,0.491,0.144,0.136,0.135,0.794,0.601,0.14,0.159,0.109,0.277,0.179,0.121,0.12,0.1
NCI-H520,0.388,0.48,0.174,0.159,0.132,0.536,0.554,0.225,0.163,0.154,0.901,1.11,0.474,0.186,0.121,0.848,0.752,0.159,0.143,0.144
CAL-12T,0.714,0.641,0.551,0.228,0.201,0.587,0.335,0.437,0.226,0.122,0.786,0.65,0.396,0.264,0.181,0.234,0.356,0.323,0.223,0.193
EPLC-272H,0.967,0.545,0.221,0.0733,0.0557,0.348,0.324,0.174,0.158,0.0709,1.08,0.257,0.664,0.19,0.0848,0.301,0.301,0.248,0.18,0.106
NCI-H2405,0.842,0.766,0.361,0.23,0.179,0.405,0.26,0.247,0.192,0.173,1.03,0.445,0.362,0.243,0.162,0.689,0.67,0.457,0.211,0.211
HCC-15,0.831,0.73,0.625,0.175,0.103,0.47,0.492,0.331,0.144,0.0968,0.918,0.88,0.829,0.55,0.121,0.369,0.383,0.363,0.196,0.0914
PC-3 [JPC-3],1.24,0.614,0.49,0.478,0.349,0.503,0.446,0.365,0.325,0.287,0.468,0.416,0.424,0.278,0.266,0.73,0.424,0.469,0.426,0.417
